Two molecules from BindingDB's records for patent US20250059204 (Aurigene Oncology, 2025) can be followed below.

Broadly, the IC50 is the midpoint of a concentration-inhibition curve. Lower therefore signals inhibition by little substance.

For the test, the target named is Histone acetyltransferase KAT6A (UniProt Q92794). As to the kind of experiment: KAT6A Biochemical Assay. The source says:
TR-FRET is homogeneous proximity assay where Europium-labelled anti-acetyl lysine antibody binds to the acetylated substrate labelled with biotin which in turn binds to streptavidin labelled APC fluorescence acceptor. Europium can transfer energy to APC in the complex and the interaction of two dye-labelled binding partners is detected by the energy transfer between a donor and an acceptor dye, and the subsequent light emission by the acceptor dye. KAT6A transfer an acetyl group from acetyl CoA to lysine amino acids of histones/target proteins. Typically, 5 μL of human-KAT6A (MYST domain 507-778 aa) in assay buffer (100 mM Tris HCl (pH 7.8), 15 mM NaCl, 1 mM EDTA, 0.01% Tween-20, 0.02% BSA, 1 mM DTT) is added to 384-well plate containing 5 μL of selected test compound in final 1% DMSO, serially diluted in 1:3 in an 8-10-point titration. The selected compound of the present invention and enzyme are incubated for 30 min at room temperature. Next, 5 μL of substrate mix containing histone H4 peptide and acetyl-CoA in assay buffer is added to the plate. The final concentrations of H4 peptide and acetyl-CoA are 200 nM and 600 nM respectively. […] The plate is further incubated for 45 min at room temperature and is read in TR-FRET mode (Ex:340 nm; Em: 615 nm and 665 nm) on a plate reader.

Sequence of Histone acetyltransferase KAT6A (Q92794 whole entry, the tested form may be a part): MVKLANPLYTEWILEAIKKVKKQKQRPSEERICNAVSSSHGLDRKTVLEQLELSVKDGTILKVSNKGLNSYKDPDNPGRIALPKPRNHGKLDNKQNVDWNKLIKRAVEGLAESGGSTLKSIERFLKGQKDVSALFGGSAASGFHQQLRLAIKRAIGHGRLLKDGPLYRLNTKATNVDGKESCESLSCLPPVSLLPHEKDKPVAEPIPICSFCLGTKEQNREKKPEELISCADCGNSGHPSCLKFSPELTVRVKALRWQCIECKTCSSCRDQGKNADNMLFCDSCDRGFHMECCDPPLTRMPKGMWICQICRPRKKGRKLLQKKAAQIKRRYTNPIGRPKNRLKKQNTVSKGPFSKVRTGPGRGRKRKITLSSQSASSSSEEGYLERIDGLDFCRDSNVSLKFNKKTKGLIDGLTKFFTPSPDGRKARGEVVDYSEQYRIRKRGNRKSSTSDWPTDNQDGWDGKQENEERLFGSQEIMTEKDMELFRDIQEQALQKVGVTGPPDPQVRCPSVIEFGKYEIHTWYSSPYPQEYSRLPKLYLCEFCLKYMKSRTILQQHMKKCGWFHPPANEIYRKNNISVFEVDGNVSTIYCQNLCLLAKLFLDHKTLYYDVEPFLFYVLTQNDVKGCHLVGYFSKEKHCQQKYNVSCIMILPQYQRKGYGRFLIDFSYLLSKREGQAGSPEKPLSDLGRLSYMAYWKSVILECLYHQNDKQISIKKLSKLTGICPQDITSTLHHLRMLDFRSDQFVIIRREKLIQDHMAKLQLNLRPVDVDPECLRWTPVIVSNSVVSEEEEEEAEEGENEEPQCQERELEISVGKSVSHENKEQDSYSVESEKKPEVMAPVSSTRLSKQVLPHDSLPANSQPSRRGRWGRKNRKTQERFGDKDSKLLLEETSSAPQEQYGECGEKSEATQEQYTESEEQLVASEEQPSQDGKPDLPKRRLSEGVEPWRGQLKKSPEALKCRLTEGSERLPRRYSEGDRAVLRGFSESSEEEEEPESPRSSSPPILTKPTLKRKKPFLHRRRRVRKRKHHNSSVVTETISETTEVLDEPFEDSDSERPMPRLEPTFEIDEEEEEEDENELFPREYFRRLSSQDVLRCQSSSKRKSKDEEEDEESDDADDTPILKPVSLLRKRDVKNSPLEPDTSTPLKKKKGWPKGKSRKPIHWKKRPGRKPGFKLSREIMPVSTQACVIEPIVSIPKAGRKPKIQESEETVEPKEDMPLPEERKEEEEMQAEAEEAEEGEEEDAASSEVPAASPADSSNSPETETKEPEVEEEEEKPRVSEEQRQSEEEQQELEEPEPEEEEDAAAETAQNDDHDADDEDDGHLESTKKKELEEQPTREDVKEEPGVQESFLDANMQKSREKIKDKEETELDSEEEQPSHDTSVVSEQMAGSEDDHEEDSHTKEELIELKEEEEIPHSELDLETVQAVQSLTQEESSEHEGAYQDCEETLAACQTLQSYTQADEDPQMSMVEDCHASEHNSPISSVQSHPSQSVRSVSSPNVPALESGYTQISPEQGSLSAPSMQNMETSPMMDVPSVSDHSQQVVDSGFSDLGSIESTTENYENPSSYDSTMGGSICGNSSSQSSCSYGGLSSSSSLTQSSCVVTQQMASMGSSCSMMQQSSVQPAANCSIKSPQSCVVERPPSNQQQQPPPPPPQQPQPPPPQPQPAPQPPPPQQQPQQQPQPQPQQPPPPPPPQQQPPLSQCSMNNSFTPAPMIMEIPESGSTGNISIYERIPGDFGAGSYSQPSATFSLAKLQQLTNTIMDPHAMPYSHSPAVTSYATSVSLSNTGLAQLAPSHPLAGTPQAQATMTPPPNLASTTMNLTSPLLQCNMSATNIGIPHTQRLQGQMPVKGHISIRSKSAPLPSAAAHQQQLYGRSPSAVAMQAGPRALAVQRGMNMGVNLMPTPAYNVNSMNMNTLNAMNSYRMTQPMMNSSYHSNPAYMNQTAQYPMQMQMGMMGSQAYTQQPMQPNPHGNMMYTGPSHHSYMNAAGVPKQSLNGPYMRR

Regarding `COc1cccc(OC)c1S(=O)(=O)Nc1noc2cc(Cn3cccn3)c3c(c12)OC(C)(C)C3` [US20250059204, Compound 56], 43 nM corresponded to half-maximal inhibition (IC50). Regarding `COc1cccc(OC)c1S(=O)(=O)Nc1noc2cc(-c3cscc3C)c3c(c12)OCC3` [US20250059204, Compound 14], half-maximal inhibition (IC50) was put at 156 nM.
